Source: PMC6792352, “Limited Chemical Structural Diversity Found to Modulate Thyroid Hormone Receptor in the Tox21 Chemical Library” (Environmental Health Perspectives, 2019)
Where a name gives a salt, the structure may show the parent alone.

experiment: in vitro; conditions: rat, gh3-tre-luc cells, AC50 (uM) modified / 1000

Point of comparison: `Cc1c(N)nc([C@H](CC(N)=O)NC[C@H](N)C(N)=O)nc1C(=O)N[C@H](C(=O)N[C@H](C)[C@@H](O)[C@H](C)C(=O)N[C@H](C(=O)NCCc1nc(-c2nc(C(=O)NCCCN[C@@H](C)c3ccccc3)cs2)cs1)[C@@H](C)O)[C@@H](O[C@@H]1O[C@@H](CO)[C@@H](O)[C@H](O)[C@@H]1O[C@H]1O[C@H](CO)[C@@H](O)[C@H](OC(N)=O)[C@@H]1O)c1c[nH]cn1` [Peplomycin sulfate], CC50 at 24 h 2.77 µM. Against it:
- CCO[Si](CCCSSSSCCC[Si](OCC)(OCC)OCC)(OCC)OCC [4,4,15,15-Tetraethoxy-3,16-dioxa-8,9,10,11-tetrathia-4,15-disilaoctadecane] — 25-fold higher, 70.3 µM
- CC(C)(C)c1ccccc1O [2-tert-Butylphenol] — higher, > 90 µM
- CN1[C@@H]2CC[C@H]1CC(NC(=O)n1c(=O)[nH]c3ccccc31)C2 (stereo partly drawn) [Itasetron] — higher, > 50 µM
- CCOC(=O)C1=C(C)NC(C)=C(C(=O)OC)C1c1cccc(Cl)c1Cl (stereo not drawn) [Felodipine] — 4.9-fold higher, 13.5 µM
- NC[C@H]1O[C@H](O[C@H]2[C@H](O)[C@@H](O[C@H]3O[C@H](CO)[C@@H](O)[C@H](N)[C@H]3O)[C@H](N)C[C@@H]2N)[C@H](N)C[C@@H]1O [Tobramycin] — higher, > 20 µM
- CCCCCCCC/C=C\CCCCCCCCN [(Z)-9-Octadecenylamine] — higher, > 50 µM
- CCC(=O)OCC(=O)[C@@]1(OC(=O)CC)[C@@H](C)C[C@H]2[C@@H]3CCC4=CC(=O)C=C[C@]4(C)[C@@]3(F)[C@@H](O)C[C@@]21C [Betamethasone dipropionate] — higher, > 50 µM
- O=C(O)c1cccc(N(Cc2cccnc2)c2ccc(OC(F)F)c(OC(F)F)c2)c1 [PharmaGSID_48510] — 27-fold higher, 75.3 µM
- O=S(=O)(O)c1ccc(O)c2ncccc12 [8-Hydroxyquinoline-5-sulfonic acid hydrate (1:x)] — higher, > 90 µM
- CN1C(=O)c2ccccc2C1=O [N-Methylphthalimide] — higher, > 90 µM
- CCCCc1ccc(Cl)cc1 [4-Butylchlorobenzene] — higher, > 90 µM
- CCCCC(=O)O[C@]1(C(=O)CO)CC[C@H]2[C@@H]3CCC4=CC(=O)CC[C@]4(C)[C@H]3[C@@H](O)C[C@@]21C [Hydrocortisone valerate] — higher, > 50 µM
- C=CCOCC1CO1 (stereo not drawn) [Allyl glycidyl ether] — higher, > 90 µM
- OC1CCC(C2CCCCC2)CC1 (stereo not drawn) [4-Cyclohexylcyclohexanol] — higher, > 90 µM
- O=C1c2ccccc2C(=O)c2cc(Cl)ccc21 [2-Chloroanthraquinone] — higher, > 5 µM
- O=S(=O)(O)CC(S)CS (stereo not drawn) [Sodium 2,3-dimercaptopropanesulfonate hydrate] — higher, > 50 µM
- O=P(O)(O)C(Cl)(Cl)P(=O)(O)O [Clodronic acid, disodium salt] — higher, > 50 µM
- Cc1cccc(C)c1NC(=O)c1ccccc1C(=O)O [Ftaxilide] — higher, > 50 µM
- CN(C)CCCNCCCN(C)C [N'-[3-(Dimethylamino)propyl]-N,N-dimethylpropane-1,3-diamine] — higher, > 90 µM
- CC[C@@H]([C@H](C)O)n1ncn(-c2ccc(N3CCN(c4ccc(OC[C@@H]5CO[C@@](Cn6cncn6)(c6ccc(F)cc6F)C5)cc4)CC3)cc2)c1=O [Posaconazole] — 9.5-fold higher, 26.4 µM
- C=C(C)C(=O)O [Methacrylic acid] — higher, > 90 µM
- Nc1ccc(S(=O)(=O)Nc2ccccn2)cc1 [Sulfapyridine] — higher, > 20 µM
- OCCCCCCO [1,6-Hexanediol] — higher, > 90 µM
- Cc1ccc2c(c1)c1c3n2CCNC3CCC1 (stereo not drawn) [Pirlindole mesylate] — 3.3-fold higher, 9.12 µM
- CCCCCCCCCCCCC(=O)O [Tridecanoic acid] — higher, > 90 µM
- CC(=O)Nc1ccc(CC(=O)O)cc1 [4-Acetylaminophenylacetic acid] — higher, > 90 µM
- O=C(COCCOCCOCC(=O)Nc1c(I)cc(I)c(C(=O)O)c1I)Nc1c(I)cc(I)c(C(=O)O)c1I [Biliscopin] — higher, > 50 µM
- CCCCNC(=N)NC(=N)N [Buformin] — higher, > 50 µM
- Cc1ccc(-c2nc3ccc(C)cn3c2CC(=O)N(C)C)cc1 [Zolpidem] — higher, > 50 µM
- Nc1cccc(O)c1 [3-Aminophenol] — higher, > 90 µM
- CC(=O)C=Cc1ccco1 [Furfural acetone] — higher, > 100 µM
- CC(=O)C1CCOC1=O (stereo not drawn) [3-Acetyldihydro-2(3H)-furanone] — higher, > 100 µM
- C[Si](C)O[Si](C)(C)O[Si](C)(C)O[Si](C)C — higher, > 90 µM
- CCOc1ccc2nc(N)sc2c1 [2-Amino-6-ethoxybenzothiazole] — higher, > 90 µM
- CCCCCCCC1CCCC1=O (stereo not drawn) [2-Heptylcyclopentanone] — higher, > 90 µM
- Cn1c(=O)c2c(ncn2CCO)n(C)c1=O [Etofylline] — higher, > 50 µM
- CCNc1nc(NC(C)CC)nc(OC)n1 (stereo not drawn) [Secbumeton] — higher, > 90 µM
- COC(C)(C)CCO [3-Methoxy-3-methylbutan-1-ol] — higher, > 90 µM
- CCN(CC)CCNC(=O)c1ccc(N)cc1 [Procainamide hydrochloride] — higher, > 90 µM
- CC(C)(O)c1ccc(C(C)(C)O)cc1 [1,4-Bis(2-hydroxy-2-propyl)benzene] — higher, > 90 µM
- CCNC(=O)C1CC(C)CCC1C(C)C (stereo not drawn) [N-Ethyl-4-menthane-3-carboxamide] — higher, > 90 µM
- NC(=O)C1(N2CCCCC2)CCN(CCCC(=O)c2ccc(F)cc2)CC1 [Pipamperone dihydrochloride] — higher, > 50 µM
- CCNC(=O)N1CCN(CCCC(c2ccc(F)cc2)c2ccc(F)cc2)CC1 [Amperozide hydrochloride] — 7.1-fold higher, 19.7 µM
- COc1cccc2c1C(=O)c1c(O)c3c(c(O)c1C2=O)C[C@@](O)(C(C)=O)C[C@@H]3O[C@H]1C[C@H](N)[C@H](O)[C@H](C)O1 [Daunomycin hydrochloride] — 11-fold lower, 0.244 µM
- Nc1ccc(O)c(C(=O)O)c1 [5-Aminosalicylic acid] — higher, > 50 µM
- CC(N)[C@]12C[C@H]3C[C@H](C[C@H](C3)C1)C2 (stereo partly drawn) [Rimantadine hydrochloride] — higher, > 50 µM
- O=C(O)c1cc(/N=N/c2ccc(S(=O)(=O)Nc3ccccn3)cc2)ccc1O [Sulfasalazine] — higher, > 90 µM
- CCC(C)N(C)C(=O)c1cc2ccccc2c(-c2ccccc2Cl)n1 (stereo not drawn) [PK 11195] — 18-fold higher, 48.6 µM
- Cc1ccc([N+](=O)[O-])c(C)c1 [1,3-Dimethyl-4-nitrobenzene] — higher, > 90 µM
- C1CCCNCC1 [Hexamethyleneimine] — higher, > 100 µM
- CN/C(=N\[N+](=O)[O-])NCc1cnc(Cl)s1 [Clothianidin] — higher, > 90 µM
- CCOC(=O)C1OC1c1ccccc1 (stereo not drawn) [Ethyl 3-phenylglycidate] — higher, > 90 µM
- CC(C)[C@H](Nc1ccc(C(F)(F)F)cc1Cl)C(=O)OC(C#N)c1cccc(Oc2ccccc2)c1 (stereo partly drawn) [Fluvalinate] — higher, > 90 µM
- CC(C)CCOC(=O)c1ccc(N(C)C)cc1 [Padimate] — higher, > 50 µM

same assay, conditions: rat, gh3-tre-luc cells, AC50 (uM) modified / 1000, Tox21_110001=Tox21_111290; viability, 1 nM T3 present, 24 h

`CCOP(=S)(OCC)Oc1ccc2c(C)c(Cl)c(=O)oc2c1` [Coumaphos] showed a CC50 at 24 h of over 50 µM.

same assay, conditions: rat, gh3-tre-luc cells, AC50 (uM) modified / 1000, Tox21_110001=Tox21_112889; viability, 1 nM T3 present, 24 h

In the case of `CNC(C)Cc1ccc2c(c1)OCO2` (stereo not drawn) [1-(1,3-Benzodioxol-5-yl)-N-methylpropan-2-amine hydrochloride], the CC50 at 24 h is reported as over 100 µM.

same assay, conditions: rat, gh3-tre-luc cells, AC50 (uM) modified / 1000, Tox21_110001=Tox21_200042; viability, 1 nM T3 present, 24 h

`C=C(Cl)CSC(=S)N(CC)CC` [Sulfallate] showed a CC50 at 24 h of over 100 µM.

same assay, conditions: rat, gh3-tre-luc cells, AC50 (uM) modified / 1000, Tox21_110001=Tox21_200235; viability, 1 nM T3 present, 24 h

Work on `Cl/C=C/CCl` [1,3-Dichloropropene] yielded a CC50 at 24 h of over 90 µM.

same assay, conditions: rat, gh3-tre-luc cells, AC50 (uM) modified / 1000, Tox21_110001=Tox21_201361; viability, 1 nM T3 present, 24 h

Molecule `C=CC(Cl)CCl` (stereo not drawn) [3,4-Dichloro-1-butene] has a CC50 at 24 h of over 90 µM.

same assay, conditions: rat, gh3-tre-luc cells, AC50 (uM) modified / 1000, Tox21_110001=Tox21_201841; viability, 1 nM T3 present, 24 h

In the case of `CCOP(=S)(OCC)Oc1ccc2c(C)c(Cl)c(=O)oc2c1` [Coumaphos], the CC50 at 24 h is reported as over 90 µM.

same assay, conditions: rat, gh3-tre-luc cells, AC50 (uM) modified / 1000, Tox21_110001=Tox21_202365; viability, 1 nM T3 present, 24 h

`O=S1OCC2C(CO1)C1(Cl)C(Cl)=C(Cl)C2(Cl)C1(Cl)Cl` (stereo not drawn) [Endosulfan] gave a CC50 at 24 h of 55.9 µM.

same assay, conditions: rat, gh3-tre-luc cells, AC50 (uM) modified / 1000, Tox21_110001=Tox21_300657; viability, 1 nM T3 present, 24 h

`O=S1OCC2C(CO1)C1(Cl)C(Cl)=C(Cl)C2(Cl)C1(Cl)Cl` (stereo not drawn) [Endosulfan] gave a CC50 at 24 h of 37.5 µM.
